Patent US20080021002A1, “VITAMIN D COMPOUNDS USED TO STABILIZE KIDNEY TRANSPLANTS” (priority 2000, published 2008)

Tested on: Smad 6 mRNA
Assay: Semi-quantitative RT-PCR of renal grafts, Smad 6 mRNA
Format: in vivo, rat
Text: FIG. 3 is a bar graph disclosing that 1,25-(OH)2D3 treated increases Smad 6 mRNA expression. Semi-quantitative RT-PCR was used to determine Smad mRNA express. PCR products were quantified on a phosphoimager and the level of Smad expression compared to that of a ribosomal housekeeping gene, S26. Results are expressed as the ratio to S26.
Semi-quantitative Reverse transcription polymerace chain reaction (RT-PCR): Following graft harvest a […] containing both cortex and medulla was snap frozen in liquid nitrogen. Semi-quantitative RT-PCR was performed as described. Little et al. Transplant Int. 12:393-401, 1999. Briefly, samples were homogenized then total RNA extracted with RNAzol B (Tel Test, Inc., Friendswood, Tex.) and reversed transcribed to cDNA according to manufacturer=s instructions (Superscript, Gibco BRL). PCR was performed over the linear range of amplification for both the gene of interest, e.g. TGFβ-1, and the ribosomal protein S26 as a control housekeeping gene. PCR conditions were chosen such that both products were amplified with similar efficiency. The following cycle parameters were employed: denaturing, 94° C. for 60 seconds; annealing, 61° C. for 60 seconds; and extension, 72° C. for 60 seconds. The amount of product was quantified using a phosphoimager (Storm 80) following gel electrophoresis and Vista green detection.

## C=C1/C(=C\C=C2/CCC[C@]3(C)[C@@H]([C@H](C)CCCC(C)(C)O)CC[C@@H]23)C[C@@H](O)C[C@@H]1O [calcitriol, 1,25-dihydroxyvitamin D3]
Allogeneic grafts, vs untreated allogeneic grafts (1,25-(OH)2D3 p=0.02)
  Smad 6 mRNA expression: significantly increased
Syngeneic grafts, vs untreated allogeneic grafts, p=0.001
  Smad 6 mRNA expression: significantly increased
